Where “and” joins values, the source holds several entries; their conditions need not be identical. Equal entries are not always repeated. Where two headings read alike, the source gives them in different places.
Tests used:
HEL cells = assay: Cell proliferation assay (CCK-8), HEL cells; assay type: cell-based, human; details: for Inhibition (%): single wells, replicates 1 and 2
Protocol: (§1) The human erythroid leukemia (HEL 92.1.7) cells were purchased from the American Type Culture Collection (ATCC, TIB-180), and the human megakaryoblastic (SET2) cells were obtained from German Collection of Microorganisms and Cell Cultures (DSMZ, ACC 608). The anti-proliferative activities of compounds were evaluated using WST-8 cell counting kit-8 (Elabscience). HEL and SET-2 cells were seeded at 5000 cells/well in 70 μL RPMI-1640 medium (Hyclon) with 10% FBS (Gibco) to the 96-well plate and incubated overnight at 37 °C with 5% CO2. The compounds were serially diluted in RPMI-1640 medium, and cells were treated separately with 30 μL various concentrations of compounds for 72 h. The final DMSO concentration in the culture wells was 0.1%, which had no effect on the cell viability. Finally, 10 μL of CCK-8 solution was added into the wells. 4 h later, the absorbance values at 450 nm were recorded. IC50 values were determined using GraphPad Prism v8.3.0, and three parallel experiments were performed.

SET-2 cells = assay: Cell proliferation assay (CCK-8), SET-2 cells; assay type: cell-based, human; details: for Inhibition (%): single wells, replicates 1 and 2
Protocol: as §1

In vivo PK study in mice = details: mice
Protocol: The mice were separately administered to a group of three mice per time point for intravenous (5 mg/kg) or oral administration (5 mg/kg). […] Then the samples were separated by centrifugation and analyzed by LC-MS/MS (XEVO TQ-S) to determine the plasma drug concentrations. The PK parameters were calculated using the noncompartment model with Phoenix WinNonLin v8.0. The animal experimental procedures were approved by the Medicine Research Ethics Committee of Hangzhou Leading Pharmatech Co., Ltd.

[1] = tested on: JAK2-STAT signaling pathways in HEL cells; assay: Western blot analysis of JAK2-STAT signaling in HEL cells; assay type: cell-based, human; details: 0.3-10 μM, 0.5 h
Protocol: HEL cells were added into six-well plates (2 × 10^6 cells/well) and then put into the incubator (37 °C, 5% CO2). After 24 h, the tested compounds were diluted in RPMI-1640 medium (final DMSO concentration = 0.1%) with different concentrations (0 μM, 0.3 μM, 1 μM, 3 μM, and 10 μM) was added separately into the wells, and incubated for another 0.5 h, then cells were collected and lysed. Proteins from each sample were isolated by SDS-PAGE and transferred to PVDF membrane. The membranes were blocked in 5% milk (TBST) for 1 h at room temperature, and subsequently incubated with the indicated primary antibody in blocking buffer overnight at 4 °C. Primary antibodies were used as follows: p-Y1007/8-JAK2 (#3771, CST, 1:1000), p-Y221-JAK2 (#11150, SAB, 1:500), p-Y705-STAT3 (#11045, SAB, 1:1000), p-Y694-STAT5 (#13386, SAB, 1:2000), STAT3 (10253-2-AP, Proteintech, 1:4000), STAT5 (12071-1-AP, Proteintech, 1:4000), JAK2 (E-AB-70193, Elabscience, 1:2000) and β-Actin (E-AB-20034, Elabscience, 1:10000). Then the membranes were washed with TBST (3 × 5 min), incubated with HRP-conjugated secondary antibody for 1 h at room temperature, washed again, and then exposed by chemiluminescence method using the enhanced ECL immunoblotting system (Tanon, Shanghai, China). All the experiments were repeated in triplicate. Blot bands were quantified by densitometry using Image J software v1.51.
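Throughout, for AUCinf: mice dosed intravenously or orally, three animals per time point, plasma drug levels quantified by LC-MS/MS, PK parameters derived by noncompartmental analysis in Phoenix WinNonLin.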
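Throughout, for Cmax: mice dosed intravenously or orally, three animals per time point, plasma drug levels quantified by LC-MS/MS, PK parameters derived by noncompartmental analysis in Phoenix WinNonLin.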
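Throughout, for T1/2: mice dosed intravenously or orally, three animals per time point, plasma drug levels quantified by LC-MS/MS, PK parameters derived by noncompartmental analysis in Phoenix WinNonLin.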
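Throughout, for Tmax: mice dosed intravenously or orally, three animals per time point, plasma drug levels quantified by LC-MS/MS, PK parameters derived by noncompartmental analysis in Phoenix WinNonLin.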

In the case of Cc1cnc2nc1Nc1cccc(c1)COCc1cc(ccc1OCCN1CCCC1)N2 [Compound 1], the “Inhibition (%)” value (HEL cells; HEL cell lines, 0.0977 μM) is reported as 2.2777% and 0.5143% and -1.6899% and 3.096% and 4.826% and 5.277%, the “Inhibition (%)” value (HEL cells; HEL cell lines, 0.1953 μM) is reported as 5.8046% and 4.8494% and 8.1558% and 6.255% and 8.812% and 5.578% and the “Inhibition (%)” value (HEL cells; HEL cell lines, 0.3906 μM) is reported as 18.9566% and 20.0588% and 8.5966% and 7.458% and 10.165% and 8.511%. For the same compound, the “Inhibition (%)” value (HEL cells; HEL cell lines, 0.7813 μM) was 26.0838% and 31.3005% and 30.4188% and 11.594% and 18.814% and 14.151%, the “Inhibition (%)” value (HEL cells; HEL cell lines, 1.5625 μM) was 34.0926% and 44.3057% and 45.4813% and 25.056% and 31.900% and 30.547% and the “Inhibition (%)” value (HEL cells; HEL cell lines, 3.1250 μM, 3.125 µM) was 46.4364% and 51.6532% and 53.8575% and 56.869% and 60.404% and 60.629%. For the same compound, the “Inhibition (%)” value (HEL cells; HEL cell lines, 6.2500 μM, 6.25 µM) was 64.2910% and 65.8339% and 68.7730% and 85.974% and 88.155% and 87.628%, the “Inhibition (%)” value (HEL cells; HEL cell lines, 12.5000 μM, 12.5 µM) was 80.4555% and 78.6187% and 81.4842% and 94.397% and 94.999% and 94.924% and the IC50 (HEL cells; HEL cell lines, mean of 2 replicates, read-out: IC50/μM mean, cellular antiproliferative activity) was 2.41 µM. For the same compound, the IC50 (HEL cells; HEL cell lines, mean ± sd of 2 replicates, read-out: IC50/μM mean ± sd, cellular antiproliferative activity) was 2.41 ± 0.2 µM, the IC50 (HEL cells; HEL cell lines, single-replicate fits, read-out: IC50/μM (individual replicates), cellular antiproliferative activity) was 2.27 µM and 2.55 µM and the IC50 (HEL cells; HEL cells, 72 h, mean ± SD, read-out: Cellular Antiproliferative Activity (IC50) HEL) was 2.41 ± 0.2 µM. For the same compound, the “Inhibition (%)” value (SET-2 cells; SET-2 cell lines, 0.0977 μM) was 5.3742% and 3.7022% and -1.2341% and 4.261% and 8.580% and 6.307%, the “Inhibition (%)” value (SET-2 cells; SET-2 cell lines, 0.1953 μM) was 7.5239% and 7.2850% and 0.8360% and 9.148% and 16.307% and 12.784% and the “Inhibition (%)” value (SET-2 cells; SET-2 cell lines, 0.3906 μM) was 10.3105% and 11.0271% and 3.0653% and 12.898% and 19.375% and 18.352%. For the same compound, the “Inhibition (%)” value (SET-2 cells; SET-2 cell lines, 0.7813 μM) was 17.3965% and 16.7596% and 8.4793% and 17.557% and 26.420% and 24.261%, the “Inhibition (%)” value (SET-2 cells; SET-2 cell lines, 1.5625 μM) was 26.9506% and 28.1449% and 22.3328% and 35.966% and 41.989% and 43.580% and the “Inhibition (%)” value (SET-2 cells; SET-2 cell lines, 3.1250 μM, 3.125 µM) was 60.6290% and 56.0111% and 56.4092% and 69.034% and 74.716% and 74.943%. The “Inhibition (%)” value (SET-2 cells; SET-2 cell lines, 6.2500 μM, 6.25 µM) was 97.5717% and 97.1736% and 97.3328% and 98.920% and 99.830% and 100.398%, the “Inhibition (%)” value (SET-2 cells; SET-2 cell lines, 12.5000 μM, 12.5 µM) was 96.8551% and 96.6959% and 97.3328% and 99.716% and 100.170% and 100.398% and the IC50 (SET-2 cells; SET-2 cell lines, mean of 2 replicates, read-out: IC50/μM mean, cellular antiproliferative activity) was 1.64 µM. For the same compound, the IC50 (SET-2 cells; SET-2 cell lines, mean ± sd of 2 replicates, read-out: IC50/μM mean ± sd, cellular antiproliferative activity) was 1.64 ± 0.03 µM, the IC50 (SET-2 cells; SET-2 cell lines, single-replicate fits, read-out: IC50/μM (individual replicates), cellular antiproliferative activity) was 1.62 µM and 1.66 µM and the IC50 (SET-2 cells; SET-2 cells, 72 h, mean ± SD, read-out: Cellular Antiproliferative Activity (IC50) SET-2) was 1.64 ± 0.03 µM. For the same compound, the AUCinf (In vivo PK study in mice; iv (5 mg/kg)) was 752.47 ng·h/mL, the Cmax (In vivo PK study in mice; iv (5 mg/kg)) was 76.57 ng/mL and the T1/2 (In vivo PK study in mice; iv (5 mg/kg)) was 5.35 h. For the same compound, the Tmax (In vivo PK study in mice; iv (5 mg/kg)) was 4.00 h, the AUCinf (In vivo PK study in mice; po (5 mg/kg)) was 106.00 ng·h/mL and the Cmax (In vivo PK study in mice; po (5 mg/kg)) was 10.35 ng/mL. For the same compound, the T1/2 (In vivo PK study in mice; po (5 mg/kg)) was 4.47 h, the Tmax (In vivo PK study in mice; po (5 mg/kg)) was 6.00 h and the “F (bioavailability)” value (In vivo PK study in mice; po (5 mg/kg) vs iv (5 mg/kg)) was 14.1%. The “activation of downstream signaling molecule STAT3 and STAT5” value [1] was “significantly inhibited”, the “phosphorylation of JAK2 at Y1007/8 site” value [1] was “increased” and the “phosphorylation of JAK2 at Y221 site” value ([1]; dose-dependent) was “efficiently blocked”.
